Results: patent US12371453B2, “Polypeptide having antibacterial activity, composition for preventing or treating sepsis comprising same, and antibacterial composition” (priority 2019, dated 2025)
Square brackets hold non-standard residues; d marks the D form. Peptide text beside a SMILES is read from it.

Columns and labels:
Assay in all cases: microbe, parasite or virus in culture
[1] = system: Acinetobacter baumannii (ATCC 19606); conditions: ATCC 19606
Procedure: (§1) To compare the antibacterial activity between the four commercially available antibiotics (ampicillin, gentamicin, levofloxacin and imipenem) and the allD FP13-NH2 (AcOH) peptide, an antibacterial activity test was performed to measure the minimum inhibitory concentrations (MIC50 and MIC80) for gram-negative and gram-positive standard strains (Escherichia coli DH5α, Escherichia coli K1, Acinetobacter baumannii, Pseudomonas aeruginosa, Salmonella enteritidis, Salmonella typhimurium, and Klebsiella pneumoniae).
(§2) More specifically, 100 μL of a medium was dispensed into each well of a 96-well plate, and in the first column, an antibiotic and a peptide in 200 μL of the medium were dispensed. 1/2 serial dilution was performed from columns 1 to 11, and gram-negative and gram-positive bacteria which had been previously cultured were diluted (OD600 nm value in dilution: approximately 0.0025) and dispensed into each well. The plate was incubated in a 37° C. incubator for 4 hours, and measured at OD600 nm.

[2] = system: Escherichia coli DH5α (ATCC PTA-4750); conditions: Escherichia coli DH5α, 4 hours
Procedure: as §1, §2

Escherichia coli K1 = conditions: K1
Procedure: as §1, §2

[3] = system: Klebiella pneumoniae (ATCC 13883); conditions: ATCC 13883
Procedure: as §1, §2

[4] = system: Pseudomanas aeruginosa PAO1 (ATCC 47085D-5); conditions: PAO1
Procedure: as §1, §2

[5] = system: Salmonela enteritidis (ATCC 13076); conditions: ATCC 13076
Procedure: as §1, §2

[6] = system: Salmonela typhimurium (ATCC 53648); conditions: Salmonella typhimurium ATCC 53648
Procedure: as §1, §2

SMILES: CC(C)C[C@@H](NC(=O)[C@H](N)CCCCN)C(=O)N[C@H](CCCNC(=N)N)C(=O)N[C@@H](C(=O)N[C@H](CCCCN)C(=O)N[C@H](CC(C)C)C(=O)N[C@H](CCCNC(=N)N)C(=O)N[C@H](CCCNC(=N)N)C(=O)N[C@H](Cc1ccc(O)cc1)C(=O)N[C@H](CC(C)C)C(=O)N[C@H](CCCNC(=N)N)C(N)=O)C(C)C [allD FP13-NH2] (H-[dK][dL][dR][dV][dK][dL][dR][dR][dY][dL][dR]-NH2; N-terminus assumed)
- MIC (μg/ml) 50% [1]: <4.0 µg/mL
- MIC (μg/ml) 80% [1]: <8.0 µg/mL
- MIC (μg/ml) 50% ([2]; 50% growth inhibition): <1.0 µg/mL
- MIC (μg/ml) 80% ([2]; 80% growth inhibition): <2.0 µg/mL
- MIC (μg/ml) 50% (Escherichia coli K1): <2.0 µg/mL
- MIC (μg/ml) 80% (Escherichia coli K1): <4.0 µg/mL
- MIC (μg/ml) 50% [3]: <0.5 µg/mL
- MIC (μg/ml) 80% [3]: <1.0 µg/mL
- MIC (μg/ml) 50% [4]: <0.5 µg/mL
- MIC (μg/ml) 80% [4]: <1.0 µg/mL
- MIC (μg/ml) 50% [5]: <1.0 µg/mL
- MIC (μg/ml) 80% [5]: <2.0 µg/mL
- MIC (μg/ml) 50% ([6]; 50% growth inhibition): <2.0 µg/mL
- MIC (μg/ml) 80% ([6]; 80% growth inhibition): <4.0 µg/mL
